Experimental findings from patent US20240197728A1, “METHODS AND PHARMACEUTICAL COMPOSITIONS FOR TREATING REFRACTORY EPILEPSY” (INSERM (INSTITUT NATIONAL DE LA SANTÉ ET DE LA RECHERCHE …, priority 2021, published 2024) are described below.

This test addresses T1, KCC2 (Rattus norvegicus, UniProt Q63633).
T1 construct: endogenous in cells; host or cells: primary rat hippocampal neurons (E18-19 Sprague-Dawley)
T1 sequence (Q63633 1-1116 isoform Q63633-2): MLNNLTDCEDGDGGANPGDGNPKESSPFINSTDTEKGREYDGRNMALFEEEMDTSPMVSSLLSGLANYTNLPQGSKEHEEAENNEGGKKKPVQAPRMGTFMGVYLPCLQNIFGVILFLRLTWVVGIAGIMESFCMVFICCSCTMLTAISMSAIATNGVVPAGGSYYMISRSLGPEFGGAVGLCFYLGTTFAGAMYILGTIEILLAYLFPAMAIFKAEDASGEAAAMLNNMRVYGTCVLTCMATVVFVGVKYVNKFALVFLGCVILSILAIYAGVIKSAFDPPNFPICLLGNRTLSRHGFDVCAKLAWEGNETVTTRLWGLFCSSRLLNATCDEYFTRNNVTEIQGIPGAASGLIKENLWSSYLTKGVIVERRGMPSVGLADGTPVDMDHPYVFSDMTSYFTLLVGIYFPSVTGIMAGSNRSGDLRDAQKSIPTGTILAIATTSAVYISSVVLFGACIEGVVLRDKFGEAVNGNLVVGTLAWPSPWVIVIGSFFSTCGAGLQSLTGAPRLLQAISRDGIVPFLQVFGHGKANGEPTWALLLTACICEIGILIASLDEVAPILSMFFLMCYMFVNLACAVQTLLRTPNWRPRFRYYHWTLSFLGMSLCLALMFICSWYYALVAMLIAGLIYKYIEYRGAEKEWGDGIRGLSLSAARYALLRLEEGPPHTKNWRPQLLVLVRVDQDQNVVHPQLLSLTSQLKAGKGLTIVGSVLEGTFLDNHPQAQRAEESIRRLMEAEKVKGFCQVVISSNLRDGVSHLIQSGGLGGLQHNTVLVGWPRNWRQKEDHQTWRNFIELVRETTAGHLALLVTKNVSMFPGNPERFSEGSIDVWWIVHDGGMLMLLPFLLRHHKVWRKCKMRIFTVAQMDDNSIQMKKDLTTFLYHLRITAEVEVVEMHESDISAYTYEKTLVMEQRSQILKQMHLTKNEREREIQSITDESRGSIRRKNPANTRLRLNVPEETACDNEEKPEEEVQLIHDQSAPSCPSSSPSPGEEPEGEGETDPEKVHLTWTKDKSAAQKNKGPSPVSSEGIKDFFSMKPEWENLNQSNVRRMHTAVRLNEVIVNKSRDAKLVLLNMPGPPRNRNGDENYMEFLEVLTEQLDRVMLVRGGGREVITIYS
Put plainly: KCC2 cluster immunocytochemistry in hippocampal neurons. In kind it is cell-based. Conditions: for change of KCC2 cluster area / change of KCC2 cluster density / change of KCC2 cluster intensity: vs DMSO. The method, then: […] Drugs were added directly to the culture medium. For electrophysiology experiments, neurons were also recorded in presence of these drugs in the bath. For biochemistry experiments on rat hippocampo-cortical slices, slices were incubated with either DMSO (vehicle), CLP257, PCPZ, WNK463 or sodium orthovanadate for 2 hours in interface chambers set at 37° C. For human tissue experiments, slices were pre-incubated with either DMSO, CLP257 or PCPZ for 2 hours in interface chambers set at 37° C. and then also recorded in presence of these compounds.
Neurons were fixed for 15 min at room temperature (RT), with paraformaldehyde (PFA, 4% w/v in PBS). Cells were then washed in PBS, permeabilized with […] for 4 min at RT and then exposed to a blocking solution containing goat serum (20% v/v; Invitrogen) and 0.1% Triton X100 diluted in PBS. Neurons were incubated for 1 hour at RT with rabbit KCC2 antibody (1: 500; Sigma) and mouse MAP2 antibody (1:500; Chemicon). Neurons were then incubated for 45 min at RT with AlexaFluor 488-conjugated goat anti-mouse antibody (1:400; Jackson Labs) and with Cy3-conjugated goat anti-rabbit antibody (1:400; Jackson Labs). Neurons were then labeled with DAPI (1:2000, 5 min), washed in PBS and mounted on slides with Mowiol 844 (48 mg/ml, Sigma).
Images were acquired using a 63×objective (NA 1.40) mounted on an upright epifluorescence microscope (DM6000, Leica) equipped with a 12-bit cooled CCD camera (Micromax, Roper Scientific) operated with MetaMorph software (Roper Scientific). For KCC2 clusters detection, exposure time was adjusted to obtain best fluorescence to noise ratio and to avoid pixel saturation. This exposure time was maintained unchanged among cells and conditions. For experiments on non-transfected cells and for each neuron, dendritic sections were chosen using MAP2 labeling and then an image with tetramethylrhodamine (TRITC) filter was acquired to visualize KCC2 labeling.
KCC2 clusters analysis was performed using MetaMorph software (Roper Scientific), as previously described. Images were first flatten background filtered (kernel size, 3×3×2) to enhance cluster outline and a user-defined intensity threshold was applied to select clusters and avoid their coalescence. Clusters were delineated in the area of interest (AOI) and the corresponding regions were transferred onto raw images to quantify cluster density (mean KCC2 cluster number per 10 μm^2) and integrated cluster intensity (integrated fluorescence pixel intensity within clusters). For each culture, the analysis was done on 10 cells per condition and approx. 100 clusters per cell.

As for `O=C1N=C(N2CCCCN2)S/C1=C\c1ccc(F)cc1O` [CLP257, (5Z)-5-[(4-Fluoro-2-hydroxyphenyl)methylene]-2-(tetrahydro-1-(2H)-pyridazinyl)-4(5H)-thiazolone], under “100 μM CLP257, 30 minutes”, the “increased KCC2 clustering observed” value is on record as “not after 30 minutes only”. Also, where the note is “100 μM CLP257, 2 h”, the “change of KCC2 cluster area” value is listed as “+36.30±20.40%”, the “change of KCC2 cluster density” value is −3.48±4.20% and the “change of KCC2 cluster intensity” value is recorded as “+33.94±13.64%”.

With `CN1CCN(CCCN2c3ccccc3Sc3ccc(Cl)cc32)CC1` [PCPZ, prochlorperazine], the “increased KCC2 clustering observed” value (10 μM PCPZ, 30 minutes) is listed as “not after 30 minutes only”. Moreover, where the note is “10 μM PCPZ, 2 h”, the “change of KCC2 cluster area” value is “+45.25±18.07%”, the “change of KCC2 cluster density” value is recorded as −6.58±8.37% and the “change of KCC2 cluster intensity” value was “+109±61.44%”.
